{"source": "patent US6469028B1", "about": "“Synthesis and use of retinoid compounds having negative hormone and/or anatgonist activities” (Allergan, Inc., priority 1995, dated 2002)", "experiment_in_all_cases": "Holoreceptor transactivation assay", "assay_type_in_all_cases": "cell-based", "set-up_in_all_cases": "expressed in transfected cells; host or cells: CV1 cells", "key": {"RARγ": {"molecular_target": "T1, RARγ (Homo sapiens, UniProt P13631)", "T1 sequence (P13631 1-454)": "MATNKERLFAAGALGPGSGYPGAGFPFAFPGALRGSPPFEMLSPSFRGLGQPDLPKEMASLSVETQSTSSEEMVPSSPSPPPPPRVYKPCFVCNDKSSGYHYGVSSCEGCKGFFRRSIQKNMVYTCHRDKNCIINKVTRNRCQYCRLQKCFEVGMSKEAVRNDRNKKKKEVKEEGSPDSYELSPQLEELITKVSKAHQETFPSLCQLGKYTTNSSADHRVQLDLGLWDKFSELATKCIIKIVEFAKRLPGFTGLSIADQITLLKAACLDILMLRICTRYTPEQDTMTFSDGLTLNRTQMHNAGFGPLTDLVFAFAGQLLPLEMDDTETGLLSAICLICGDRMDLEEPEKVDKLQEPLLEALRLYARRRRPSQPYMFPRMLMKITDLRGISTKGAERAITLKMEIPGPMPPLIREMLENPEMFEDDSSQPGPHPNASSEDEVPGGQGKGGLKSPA", "details": "relative to all trans retinoic acid; read-out: Transactivation Assay Efficacy (% of RA activity) RARγ", "excerpt": "(§1) A holoreceptor transactivation assay and a ligand binding assay which measure the antagonist/agonist like activity of the compounds of the invention, or their ability to bind to the several retinoid receptor subtypes, respectively, are described in published PCT Application No. WO93/11755 (particularly on pages 30-33 and 37-41) published on Jun. 24, 1993, the specification of which is also incorporated herein by reference. A description of the holoreceptor transactivation assay is also provided below.\n(§2) CV1 cells (5,000 cells/well) were transfected with an RAR reporter plasmid MTV-TREp-LUC (50 ng) along with one of the RAR expression vectors (10 ng) in an automated 96-well format by the calcium phosphate procedure of Heyman et al. Cell 68: 397-406. For RXR-α and RXR-γ transactivation assays, an RXR-responsive reporter plasmid CRBPII-tk-LUC (50 ng) along with the appropriate RXR expression vectors (10 ng) was used substantially as described by Heyman et al. above, and Allegretto et al. J. Biol. Chem. 268: 26625-26633. For RXR-β transactivation assays, an RXR-responsive reporter plasmid CPRE-tk-LUC ([…]) along with RXR-β expression vector ([…]) was used as described in above. These reporters contain DRI elements from human CRBPII and certain DRI elements from promotor, respectively (see Mangelsdorf et al. The Retinoids: Biology Chemistry and Medicine, pp. 319-349, Raven Press Ltd., New York and Heyman et al., cited above). A β-galactosidase (50 ng) expression vector was used as an internal control in the transfections to normalize for variations in transfection efficiency. The cells were transfected in triplicate for 6 hours, followed by incubation with retinoids for 36 hours, and the extracts were assayed for luciferase and […] activities. The detailed experimental procedure for holoreceptor transactivations has been described in Heyman et al. above, and Allegretto et al. cited above. The results obtained in this assay are expressed in EC50 numbers, as they are also in the chimeric receptor transactivation assay. The Heyman et al. Cell 68: 397-406, Allegretto et al. J. Biol. Chem. 268: 26625-26633, and Mangelsdorf et al. The Retinoids: Biology, Chemistry, and Medicine, pp. 319-349, Raven Press Ltd., New York, are expressly incorporated herein by reference. The results of ligand binding assay are expressed in Kd numbers. (See Cheng et al. Biochemical Pharmacology 22: 3099-3108, expressly incorporated herein by reference.)\n(§3) A compound should not cause significant activation of a reporter gene through a given receptor subtype (RAR-α, RAR-β or RAR-γ) in the holoreceptor transactivation assay, in order to qualify as an RAR antagonist with utility in the present invention."}, "RARα": {"molecular_target": "T2, RARα (Homo sapiens, UniProt P10276)", "T2 sequence (P10276 1-462)": "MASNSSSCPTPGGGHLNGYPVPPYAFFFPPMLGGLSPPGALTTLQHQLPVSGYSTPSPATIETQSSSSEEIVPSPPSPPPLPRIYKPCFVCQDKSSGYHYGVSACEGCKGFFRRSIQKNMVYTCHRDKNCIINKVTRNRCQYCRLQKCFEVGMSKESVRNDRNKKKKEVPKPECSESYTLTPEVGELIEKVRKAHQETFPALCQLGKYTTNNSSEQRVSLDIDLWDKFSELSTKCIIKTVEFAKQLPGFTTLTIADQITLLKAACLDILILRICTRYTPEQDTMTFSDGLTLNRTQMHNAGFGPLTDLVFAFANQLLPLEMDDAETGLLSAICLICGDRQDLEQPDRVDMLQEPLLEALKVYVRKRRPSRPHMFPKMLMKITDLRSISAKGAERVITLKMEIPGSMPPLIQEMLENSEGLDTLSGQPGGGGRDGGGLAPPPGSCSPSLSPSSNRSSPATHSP", "details": "relative to all trans retinoic acid; read-out: Transactivation Assay Efficacy (% of RA activity) RARα", "excerpt": "as §1, §2, §3"}, "RARβ": {"molecular_target": "T3, RARβ (Homo sapiens, UniProt P10826)", "T3 sequence (P10826 1-448 isoform P10826-2)": "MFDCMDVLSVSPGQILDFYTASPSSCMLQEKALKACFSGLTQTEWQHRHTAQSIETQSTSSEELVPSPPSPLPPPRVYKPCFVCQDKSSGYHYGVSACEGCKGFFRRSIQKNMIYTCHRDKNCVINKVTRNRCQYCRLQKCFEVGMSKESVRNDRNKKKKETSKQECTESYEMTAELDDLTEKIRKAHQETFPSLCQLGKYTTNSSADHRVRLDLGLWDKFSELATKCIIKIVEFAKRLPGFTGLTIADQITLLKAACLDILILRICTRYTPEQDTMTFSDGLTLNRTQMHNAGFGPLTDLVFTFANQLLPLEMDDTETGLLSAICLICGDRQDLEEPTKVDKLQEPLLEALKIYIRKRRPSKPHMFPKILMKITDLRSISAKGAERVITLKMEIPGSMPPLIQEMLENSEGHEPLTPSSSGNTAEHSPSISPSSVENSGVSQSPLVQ", "details": "relative to all trans retinoic acid; read-out: Transactivation Assay Efficacy (% of RA activity) RARβ", "excerpt": "as §1, §2, §3"}}, "data": [{"smiles": "Cc1ccc(C2=CCC(C)(C)c3ccc(/C=C/c4ccc(C(=O)O)cc4)cc32)cc1", "note": "[Compound 45]", "values": [{"measurement": "Emax", "setting": "RARγ", "result": 7, "unit": "%"}, {"measurement": "Emax", "setting": "RARα", "result": 2, "unit": "%"}, {"measurement": "Emax", "setting": "RARβ", "result": 0, "unit": "%"}]}, {"smiles": "Cc1ccc(C2=CCC(C)(C)c3ccc(N=Nc4ccc(C(=O)O)cc4)cc32)cc1", "note": "[Compound 46b, 4-[(5,6-dihydro-5,5-dimethyl-8-(4-methylphenyl)-2-naphthalenyl)azo]-benzoic acid]", "values": [{"measurement": "Emax", "setting": "RARγ", "result": 3, "unit": "%"}, {"measurement": "Emax", "setting": "RARα", "result": 4, "unit": "%"}, {"measurement": "Emax", "setting": "RARβ", "result": 5, "unit": "%"}]}, {"smiles": "CC(/C=C/C=C(\\C)c1ccc2c(c1)C(c1ccc(C)cc1)=CCC2(C)C)=C\\C(=O)O", "note": "[Compound 52, (E,E,E)-3-methyl-7-(5,6-dihydro-5,5-dimethyl-8-(4-methylphenyl)-2-naphthalenyl)-2,4,6-octatrienoic acid]", "values": [{"measurement": "Emax", "setting": "RARγ", "result": 3, "unit": "%"}, {"measurement": "Emax", "setting": "RARα", "result": 0, "unit": "%"}, {"measurement": "Emax", "setting": "RARβ", "result": 15, "unit": "%"}]}, {"smiles": "Cc1ccc(C2=CCC(C)(C)c3ccc(C#Cc4ccc(C(=O)O)cc4)cc32)cc1", "note": "[Compound 60, 4-[(5,6-dihydro-5,5-dimethyl-8-(4-methylphenyl)-2-naphthalenyl)ethynyl]benzoic acid]", "values": [{"measurement": "Emax", "setting": "RARγ", "result": 4, "unit": "%"}, {"measurement": "Emax", "setting": "RARα", "result": 0, "unit": "%"}, {"measurement": "Emax", "setting": "RARβ", "result": 1, "unit": "%"}]}, {"smiles": "CC(C)(C)c1ccc(C2=CCC(C)(C)c3ccc(C#Cc4ccc(C(=O)O)cc4)cc32)cc1", "note": "[Compound 61, 4-[(5,6-Dihydro-5,5-dimethyl-8-(4-(1,1-dimethylethyl)phenyl)-2-naphthalenyl)ethynyl]benzoic acid]", "values": [{"measurement": "Emax", "setting": "RARγ", "result": 0, "unit": "%"}, {"measurement": "Emax", "setting": "RARα", "result": 2, "unit": "%"}, {"measurement": "Emax", "setting": "RARβ", "result": 2, "unit": "%"}]}, {"smiles": "Cc1ccc(C2=CCC(C)(C)c3ccc(C(=S)Nc4ccc(C(=O)O)c(F)c4)cc32)cc1", "note": "[Compound 63, 2-fluoro-4-[[(5,6-dihydro-5,5-dimethyl-8-(4-methylphenyl)-2-naphthalenyl)thiocarbonyl]amino]-benzoic acid]", "values": [{"measurement": "Emax", "setting": "RARγ", "result": 7, "unit": "%"}, {"measurement": "Emax", "setting": "RARα", "result": 2, "unit": "%"}, {"measurement": "Emax", "setting": "RARβ", "result": 2, "unit": "%"}]}, {"smiles": "Cc1ccc(C2=CCC(C)(C)c3cc(C(=O)C=Cc4ccc(C(=O)O)cc4)ccc32)cc1", "note": "[Compound 101, 4-[3-oxo-3-(7,8-dihydro-5-(4-methylphenyl)-8,8-dimethyl-2-naphthalenyl)-1-propenyl]-benzoic acid]", "values": [{"measurement": "Emax", "setting": "RARγ", "result": 2, "unit": "%"}, {"measurement": "Emax", "setting": "RARα", "result": 0, "unit": "%"}, {"measurement": "Emax", "setting": "RARβ", "result": 4, "unit": "%"}]}, {"smiles": "CC1(C)CC=C(c2ccccc2)c2ccc(C(=O)C=Cc3ccc(C(=O)O)cc3)cc21", "note": "[Compound 103, 4-[3-oxo-3-(7,8-dihydro-5-phenyl-8,8-dimethyl-2-naphthalenyl)-1-propenyl]-benzoic acid]", "values": [{"measurement": "Emax", "setting": "RARγ", "result": 7, "unit": "%"}, {"measurement": "Emax", "setting": "RARα", "result": 4, "unit": "%"}, {"measurement": "Emax", "setting": "RARβ", "result": 12, "unit": "%"}]}]}
